Holding throughout (format): functional
Test [1] relates to Photobacterium leiognathi. The test is described as follows: Growth inhibition of Photobacterium leiognathi Sh1 assessed as bio-luminescence at 0.25 mg/ml after 16 to 18 hr by chronic action test relative to control. More on the design: scale not given: the % may be the effect or the level left.
Test [2] deals with Photobacterium leiognathi. The test is described as follows: Growth inhibition of Photobacterium leiognathi Sh1 assessed as bio-luminescence at 0.25 mg/ml after 10 min by acute action test relative to control. More on the design: scale not given: the % may be the effect or the level left.
Test [3] concerns Photobacterium leiognathi. The test is described as follows: Growth inhibition of Photobacterium leiognathi Sh1 assessed as bio-luminescence at 0.025 mg/ml after 16 to 18 hr by chronic action test relative to control. More on the design: scale not given: the % may be the effect or the level left.
The test system of test [4] is Photobacterium leiognathi. The test is described as follows: Growth inhibition of Photobacterium leiognathi Sh1 assessed as bio-luminescence at 0.1 mg/ml after 10 min by acute action test relative to control. More on the design: scale not given: the % may be the effect or the level left.
For test [5], the system named is SR. The test is described as follows: Cytotoxicity against Homo sapiens (human) SR cells assessed as cell growth at 10 uM after 48 hr by SRB assay relative to control. The settings on record: read-out: Activity.
In test [6] the test system is Photobacterium leiognathi. The test is described as follows: Growth inhibition of Photobacterium leiognathi Sh1 assessed as bio-luminescence at 0.1 mg/ml after 16 to 18 hr by chronic action test relative to control. More on the design: scale not given: the % may be the effect or the level left.
Test [7] deals with Photobacterium leiognathi. Briefly: Growth inhibition of Photobacterium leiognathi Sh1 assessed as bio-luminescence at 0.025 mg/ml after 10 min by acute action test relative to control. More on the design: scale not given: the % may be the effect or the level left.
Test [8] has as its system MOLT-4. Briefly: Cytotoxicity against Homo sapiens (human) MOLT4 cells assessed as cell growth at 10 uM after 48 hr by SRB assay relative to control. The settings on record: MOLT-4, 48 h, read-out: Activity.
Test [9] has as its system K562. The test is described as follows: Cytotoxicity against Homo sapiens (human) K562 cells assessed as cell growth at 10 uM after 48 hr by SRB assay relative to control. The settings on record: K562, 48 h, read-out: Activity.
The subject of test [10] is LOX IMVI. The test is described as follows: Cytotoxicity against Homo sapiens (human) LOXIMVI cells assessed as cell growth at 10 uM after 48 hr by SRB assay relative to control. The settings on record: read-out: Activity.

With `Cc1ccc(CNC(=O)CSc2nc3ccccc3c3nc(=O)c(C)nn23)cc1`, the Activity in test [1] is given as 150%; in test [2] it was 128.6%; in [3], 122.2%; in test [4], 100%; in [6], 212.8%; in [7] it was 88.3%. In [5], the growth at 10 µM was determined as 81.8%.

For `COc1ccccc1CNC(=O)CSc1nc2ccccc2c2nc(=O)c(C)nn12`, the Activity amounted to 188% in test [1]; 139.4% in [2]; 93.3% in [3]; 110% in [4]; 160% in [6]; 89.2% in [7]. In addition, the growth at 10 µM in test [5] worked out at 75.6%.

For `COc1ccc(CNC(=O)CSc2nc3ccccc3c3nc(=O)c(C)nn23)cc1`, the Activity came out at 180% in [1]; 151.5% in test [2]; 138.7% in test [3]; 130% in test [4]; 176% in test [6]; 92.3% in test [7]. In addition, in test [5], the growth at 10 µM was found to be 71.5%.

`COc1ccc(CNC(=O)CSc2nc3ccccc3c3nc(=O)c(-c4ccccc4)nn23)cc1`: the Activity was 40% in test [1]; 138.7% in test [2]; 50% in test [3]; 106.2% in [4]; 44.4% in [6]; 111.5% in test [7]. Further, the growth at 10 µM in [8] was 78.7%.

With `O=C(CSc1nc2ccccc2c2nc(=O)c(-c3ccccc3)nn12)NCc1cccc(C(F)(F)F)c1`, the Activity is reported as 0% in test [1]; 17.78% in test [2]; 13.33% in [3]; 33.33% in test [4]; 10.67% in [6]; 66.67% in [7].

Consider `Cc1nn2c(SCC(=O)NCc3ccccc3F)nc3ccccc3c2nc1=O`, for which the Activity stood at 200% in [1]; 170% in test [2]; 130.2% in test [3]; 66.7% in [4]; 233.3% in [6]; 116.7% in test [7]. For the same compound, the growth at 10 µM in test [9] came out at 77.8%.

Take `O=C(CSc1nc2ccccc2c2nc(=O)c(-c3ccccc3)nn12)NCCc1ccccc1`: the Activity in test [1] is recorded as 57.1%; in test [2], 119.4%; in [3], 222.2%; in test [4], 121.5%; in [6], 400%; in test [7], 109.5%. For the same compound, the growth at 10 µM in [10] is 61.1%.

Consider `Cc1ccc(-c2nn3c(SCC(=O)Nc4ccc(C(F)(F)F)cc4)nc4ccccc4c3nc2=O)cc1`, for which the Activity in [1] was found to be 100%; in test [2] it was 142.5%; in [3], 51.2%; in test [4], 113.3%; in test [6] it was 116.7%; in [7] it was 103.3%. In addition, in test [5], the growth at 10 µM stood at 66%.

Consider `Cc1nn2c(SCC(=O)Nc3ccccc3F)nc3ccccc3c2nc1=O`, for which the Activity in test [1] is listed as 142.86%; in [2], 50.56%; in test [3], 142.86%; in test [4] it was 73.03%; in test [6], 196.43%; in [7], 84.27%.

As to `O=C(CSc1nc2ccccc2c2nc(=O)c(-c3ccccc3)nn12)Nc1cccc(F)c1`, the Activity is listed as 92.59% in test [1]; 96.36% in test [2]; 44.44% in [3]; 90.91% in test [4]; 38.89% in test [6]; 94.55% in test [7].

With `Cc1ccc(-c2nn3c(SCC(=O)Nc4cccc(F)c4)nc4ccccc4c3nc2=O)cc1`, the Activity in [1] came out at 41.46%; in test [2], 65.22%; in [3], 69.51%; in test [4], 93.48%; in test [6], 32.93%; in test [7], 97.83%.

Turning to `Cc1ccc(-c2nn3c(SCC(=O)Nc4ccc(F)cc4)nc4ccccc4c3nc2=O)cc1`, the Activity in [1] stood at 166.67%; in test [2] it was 8.16%; in test [3], 250%; in test [4], 36.73%; in [6], 133.33%; in [7], 75.51%.

In the case of `O=C(CSc1nc2ccccc2c2nc(=O)c(-c3ccccc3)nn12)Nc1cccc(Cl)c1`, the Activity in test [1] turned out to be 101.39%; in test [2], 59.52%; in [3] it was 101.39%; in [4], 109.52%; in test [6], 100%; in test [7], 104.76%.

Turning to `O=C(CSc1nc2ccccc2c2nc(=O)c(-c3ccccc3)nn12)Nc1ccc(Cl)cc1`, the Activity in [1] worked out at 87.5%; in [2], 142.9%; in test [3], 88.9%; in test [4], 120%; in [6], 212.8%; in [7], 100%. Moreover, in test [8], the growth at 10 µM was 77.5%.

Regarding `Cc1ccc(-c2nn3c(SCC(=O)Nc4ccc(Cl)cc4)nc4ccccc4c3nc2=O)cc1`, the Activity in test [1] is on record as 37.5%; in [2], 31.91%; in [3], 75%; in test [4] it was 63.83%; in test [6] it was 93.75%; in [7], 68.09%.

For `Cc1ccc(-c2nn3c(SCC(=O)Nc4ccccc4[N+](=O)[O-])nc4ccccc4c3nc2=O)cc1`, the Activity in test [1] is reported as 50%; in test [2], 62.5%; in [3], 93%; in [4] it was 36%; in test [6], 250%; in test [7], 83.3%.

Turning to `Cc1nn2c(SCC(=O)NCc3ccccc3)nc3ccccc3c2nc1=O`, the Activity in test [1] was found to be 250%; in test [2], 91.7%; in [3], 72.7%; in test [4] it was 87.5%; in [6], 115.4%; in test [7], 66.7%. In addition, in test [8], the growth at 10 µM is 78.5%.

Consider `Cc1nn2c(SCC(=O)Nc3ccccc3)nc3ccccc3c2nc1=O`, for which the Activity in test [1] is on record as 57.78%; in test [2], 95.59%; in test [3], 88.89%; in [4], 98.53%; in [6] it was 61.11%; in test [7], 95.59%.

In the case of `O=C(CSc1nc2ccccc2c2nc(=O)c(-c3ccccc3)nn12)Nc1ccccc1`, the Activity worked out at 80.56% in test [1]; 47.62% in test [2]; 90.28% in test [3]; 78.57% in [4]; 83.33% in [6]; 95.24% in test [7].

Turning to `COc1ccc(-c2nn3c(SCC(=O)Nc4ccccc4C)nc4ccccc4c3nc2=O)cc1`, the Activity came to 94.55% in test [1]; 68.42% in [2]; 90.91% in test [3]; 82.46% in test [4]; 94.55% in [6]; 96.49% in [7].

Consider `Cc1cccc(NC(=O)CSc2nc3ccccc3c3nc(=O)c(C)nn23)c1`, for which the Activity in [1] is on record as 14.29%; in test [2] it was 73.12%; in test [3], 196.43%; in test [4], 98.92%; in [6], 178.57%; in [7], 96.77%.

Turning to `COc1ccccc1NC(=O)CSc1nc2ccccc2c2nc(=O)c(-c3ccccc3)nn12`, the Activity in test [1] stood at 18.18%; in test [2], 53.85%; in test [3], 22.73%; in test [4], 63.46%; in [6] it was 11.36%; in test [7], 71.15%.

Regarding `Cc1nn2c(SCC(=O)Nc3ccccc3C(F)(F)F)nc3ccccc3c2nc1=O`, the Activity in test [1] came out at 97.14%; in test [2] it was 88.89%; in test [3] it was 100%; in [4], 86.67%; in test [6], 100%; in test [7], 88.89%.

For `O=C(CSc1nc2ccccc2c2nc(=O)c(-c3ccccc3)nn12)Nc1cccc(C(F)(F)F)c1`, the Activity in [1] came to 187.5%; in test [2], 46.67%; in test [3], 187.5%; in test [4], 100%; in test [6], 203.13%; in test [7], 96.67%.

Take `CN(C)[C@@H]1C(O)=C(C(N)=O)C(=O)[C@@]2(O)C(O)=C3C(=O)c4c(O)cccc4[C@@](C)(O)[C@H]3C[C@@H]12` [TETRACYCLINE]: the Activity in test [1] is recorded as 0%; in [2], 0%; in test [3], 0%; in [4], 9.1%; in test [6], 0%; in test [7], 80.7%.

The values above are taken from ChEMBL document CHEMBL3045943, “Novel N-aryl(alkaryl)-2-[(3-R-2-oxo-2H-[1,2,4]triazino[2,3-c]quinazoline-6-yl)thio]acetamides: synthesis, cytotoxicity, anticancer activity, COMPARE analysis and docking” (2013).
